According to paper PMC9007951, “Systematically evaluating DOTATATE and FDG as PET immuno-imaging tracers of cardiovascular inflammation” (Scientific Reports, 2022):
Like-named read-outs stand apart in the source and are kept apart here.

How the values were obtained:
[1] = Organ biodistribution of [^68Ga]Ga-DOTATATE by ex vivo gamma counting; assay type: in vivo, New Zealand White rabbits; settings: male, New Zealand White, rabbit, 190 MBq, total radioactivity, 200 min after tracer injection, median (IQR)
Procedure: Adopting a translational approach, the rabbit studies were performed with the [^68Ga]Ga-labeled tracer, which is already being used in the clinic. [^68Ga]Ga-DOTATATE was purchased from Advanced Accelerator Applications (AAA, Millburn, NJ, USA). To determine its pharmacokinetics, three atherosclerotic rabbits and two healthy controls were injected with approximately 190 MBq of [^68Ga]Ga-DOTATATE. Venous blood was sampled at 1, 5, 10, 15, 20, 30, 60, 120, 180, 240 and 300 min after injection through the ear vein. Samples were weighed and gamma counted. Blood half-life data were fitted using a two-phase decay non-linear regression using GraphPad Prism v8.4.3 (Supplementary Table S1). To investigate the tracer blood distribution, blood samples were centrifuged at 2000 g for 15 min at 4 °C to determine the radioactivity concentration in the plasma and cellular fractions. To analyze [^68Ga]Ga-DOTATATE biodistribution, all rabbits were euthanized after the last imaging time-point using an injection of pentobarbital 100 mg/kg and exsanguination of the portal vein. Rabbits were extensively perfused with 1000 mL of saline. Following, tissues (blood, heart, aorta, liver, kidney, skeletal muscle, small and large intestine, fat, stomach, pancreas and bladder) were harvested, weighed and gamma counted.

atherosclerotic rabbits = assay: In vivo PET/MR imaging of aortic inflammation in rabbits; parameters: species or system New Zealand White rabbits; settings: rabbits kept on Western Diet for 7 months, paired analysis, N = 7, p > 0.9999
Excerpt: For the rabbit studies, 3 months old male New Zealand White (NZW) rabbits (N = 47) were purchased from Charles River Laboratories (Wilmington, MA). Randomly assigned control rabbits (N = 11) were kept on chow diet and imaged with PET/MR. Among these some animals were euthanized for biodistribution assays (N = 6) or used for time-activity characterization of aorta signal (N = 3). For the atherosclerosis model, remaining rabbits (N = 36) were placed on Western diet (initial 8 weeks on regular chow enriched with 0.3% cholesterol and 4.7% coconut oil, and the remaining time period on 0.15% enriched cholesterol diet from Research diets, Inc. Brunswick, NJ). In order to induce atherosclerotic lesions, these rabbits were subjected to two endothelial denudations of the aorta through the right and left femoral artery at 2 and 6 weeks after diet initiation, respectively, as described previously. Briefly, femoral artery angioplasty was performed under fluoroscopic guidance using a 4F-Fogarty embolectomy catheter. Once catheter is inserted, catheter is positioned in the thoracic descending aorta region. The balloon was then inflated to 2 atm. Catheter is then pulled back over the entire length of the aorta down to the iliac bifurcation, and the pullback procedure is repeated for two additional times. Catheter is then removed, and femoral artery is ligated. Rabbits with atherosclerosis were imaged 4 months after diet initiation (N = 36). Among these animals some were euthanized for ex vivo biodistribution analyses (N = 9), used for time-activity characterization of aorta signal (N = 3) or near infra-red imaging ([…]). The remaining atherosclerotic rabbits were fed a Western diet for an additional 3 months (N = 9) to advance atherosclerosis. At the end of the 3-month period, these rabbits were imaged and euthanized.
In vivo imaging in rabbits was performed on a 3 Tesla Biograph mMR (Siemens, Erlangen, Germany) Positron Emission Tomography/Magnetic Resonance Imaging (PET/MRI) clinical scanner. To establish the optimal imaging time-point for [^68Ga]Ga-DOTATATE aortic imaging in this animal model, 5 rabbits underwent dynamic PET imaging for 3 h immediately after injection of approximately 190 MBq of the tracer. Rabbits where injected intravenously via the ear vein with approximately 190 MBq of either [^18F]F- FDG or [^68Ga]Ga-DOTATATE. Rabbits undergoing [^18F]F-FDG scans were fasted for 3–4 h before injection to avoid tracer uptake in the bowels, as previously validated. […]
Using OsiriX v5.6 software (OsiriX Foundation, Geneva, Switzerland), regions of interest (ROIs) were drawn to determine organ radioactivity concentration. […]

SMILES: C[C@@H](O)[C@H](NC(=O)[C@@H]1CSSC[C@H](NC(=O)[C@@H](Cc2ccccc2)NC(=O)CN2CCN(CC(=O)O)CCN(CC(=O)O)CCN(CC(=O)O)CC2)C(=O)N[C@@H](Cc2ccc(O)cc2)C(=O)N[C@H](Cc2c[nH]c3ccccc23)C(=O)N[C@@H](CCCCN)C(=O)N[C@@H]([C@@H](C)O)C(=O)N1)C(=O)O [[^68Ga]Ga-DOTATATE, metal not drawn]
- tissue uptake at 200 min ([1]; abdominal aorta, iv, male athero4mo rabbits, N = 9, read-out: Tissue radioactivity, abdominal aorta): 0.017 %ID/g
- tissue uptake at 200 min ([1]; abdominal aorta, iv, male control rabbits, N = 6, read-out: Tissue radioactivity, abdominal aorta): 0.006 %ID/g
- tissue uptake at 200 min ([1]; adrenal gland, iv, male athero4mo rabbits, N = 9, read-out: Tissue radioactivity, adrenal gland): 0.012 %ID/g
- tissue uptake at 200 min ([1]; adrenal gland, iv, male control rabbits, N = 6, read-out: Tissue radioactivity, adrenal gland): 0.003 %ID/g
- tissue uptake at 200 min ([1]; bladder, intravenous, male athero4mo rabbits, N = 9, read-out: Tissue radioactivity, bladder): 0.075 %ID/g
- tissue uptake at 200 min ([1]; bladder, intravenous, male control rabbits, N = 6, read-out: Tissue radioactivity, bladder): 0.053 %ID/g
- tissue uptake at 200 min ([1]; bone marrow, intravenous, male athero4mo rabbits, N = 9, read-out: Tissue radioactivity, bone marrow): 0.006 %ID/g
- tissue uptake at 200 min ([1]; bone marrow, intravenous, male control rabbits, N = 6, read-out: Tissue radioactivity, bone marrow): 0.003 %ID/g
- tissue uptake at 200 min ([1]; fat, intravenous, male athero4mo rabbits, N = 9, read-out: Tissue radioactivity, fat): 0.002 %ID/g
- tissue uptake at 200 min ([1]; heart, iv, male athero4mo rabbits, N = 9, read-out: Tissue radioactivity, heart): 0.006 %ID/g
- tissue uptake at 200 min ([1]; heart, iv, male control rabbits, N = 6, read-out: Tissue radioactivity, heart): 0.003 %ID/g
- tissue uptake at 200 min ([1]; kidneys, iv, male athero4mo rabbits, N = 9, read-out: Tissue radioactivity, kidneys): 0.157 %ID/g
- tissue uptake at 200 min ([1]; kidneys, iv, male control rabbits, N = 6, read-out: Tissue radioactivity, kidneys): 0.128 %ID/g
- tissue uptake at 200 min ([1]; large intestine, iv, male athero4mo rabbits, N = 9, read-out: Tissue radioactivity, large intestine): 0.01 %ID/g
- tissue uptake at 200 min ([1]; large intestine, iv, male control rabbits, N = 6, read-out: Tissue radioactivity, large intestine): 0.005 %ID/g
- tissue uptake at 200 min ([1]; liver, intravenous, male athero4mo rabbits, N = 9, read-out: Tissue radioactivity, liver): 0.006 %ID/g
- tissue uptake at 200 min ([1]; lungs, iv, male athero4mo rabbits, N = 9, read-out: Tissue radioactivity, lungs): 0.015 %ID/g
- tissue uptake at 200 min ([1]; lungs, iv, male control rabbits, N = 6, read-out: Tissue radioactivity, lungs): 0.005 %ID/g
- tissue uptake at 200 min ([1]; lymph node, iv, male athero4mo rabbits, N = 9, read-out: Tissue radioactivity, lymph node): 0.013 %ID/g
- tissue uptake at 200 min ([1]; lymph node, iv, male control rabbits, N = 6, read-out: Tissue radioactivity, lymph node): 0.005 %ID/g
- tissue uptake at 200 min ([1]; muscle, iv, male athero4mo rabbits, N = 9, read-out: Tissue radioactivity, muscle): 0.003 %ID/g
- tissue uptake at 200 min ([1]; muscle, iv, male control rabbits, N = 6, read-out: Tissue radioactivity, muscle): 0.001 %ID/g
- tissue uptake at 200 min ([1]; pancreas, intravenous, male control rabbits, N = 6, read-out: Tissue radioactivity, pancreas): 0.005 %ID/g
- tissue uptake at 200 min ([1]; small intestine, iv, male athero4mo rabbits, N = 9, read-out: Tissue radioactivity, small intestine): 0.021 %ID/g
- tissue uptake at 200 min ([1]; small intestine, iv, male control rabbits, N = 6, read-out: Tissue radioactivity, small intestine): 0.025 %ID/g
- tissue uptake at 200 min ([1]; spleen, intravenous, male athero4mo rabbits, N = 9, read-out: Tissue radioactivity, spleen): 0.012 %ID/g
- tissue uptake at 200 min ([1]; spleen, intravenous, male control rabbits, N = 6, read-out: Tissue radioactivity, spleen): 0.015 %ID/g
- tissue uptake at 200 min ([1]; stomach, intravenous, male athero4mo rabbits, N = 9, read-out: Tissue radioactivity, stomach): 0.053 %ID/g
- tissue uptake at 200 min ([1]; thoracic aorta, iv, male athero4mo rabbits, N = 9, read-out: Tissue radioactivity, thoracic aorta): 0.015 %ID/g
- tissue uptake at 200 min ([1]; thoracic aorta, iv, male control rabbits, N = 6, read-out: Tissue radioactivity, thoracic aorta): 0.004 %ID/g
- change of tracer accumulation (SUVmax abdominal aorta) athero7mo vs athero4mo (atherosclerotic rabbits): did not detect a further increase in tracer accumulation
